Experimental data taken from paper doi:10.1101/2025.05.27.656397, “A new heme enzyme family forms hydrazine groups in diverse biosynthetic pathways” (bioRxiv, 2025).

Assays:
[1] = biological target: T1, KinIJ (Streptomyces murayamaensis, UniProt A0A385LMJ2); test: LC-MS detection of L-hydrazinosuccinate; assay type: biochemical; details: methyl or benzyl viologen, anaerobic
T1 construct: gene kinJ; heterodimer, His6 tag on one or both proteins, expressed aerobically in E. coli and purified anaerobically; KinI co-purified or added separately; with Ferredoxin KinI

[2] = biological target: T2, KinJ (Streptomyces murayamaensis, UniProt A0A385LMJ2); test: EPR spectroscopy; assay type: binding; details: ferric enzyme; axial ligand of heme; no ferredoxin
T2 construct: monomeric when expressed alone; contains heme b

[3] = biological target: FzmP, co-expressed with KinI (not stated (Streptomyces sp. S-149 or Streptomyces sp. XY332 cloned)); test: SEC; anaerobic size exclusion chromatography of proteins expressed alone or co-expressed and purified
[4] = biological target: T3, KinJ from Streptomyces murayamaensis ATCC 21414 (tag placement not stated for the experiment) (Streptomyces murayamaensis ATCC 21414, UniProt A0A385LMJ2); test: reciprocal His6 co-purification (pull-down) and anaerobic SEC of the co-expressed complex; co-expressed in E. coli and purified anaerobically as a complex
T3 chain: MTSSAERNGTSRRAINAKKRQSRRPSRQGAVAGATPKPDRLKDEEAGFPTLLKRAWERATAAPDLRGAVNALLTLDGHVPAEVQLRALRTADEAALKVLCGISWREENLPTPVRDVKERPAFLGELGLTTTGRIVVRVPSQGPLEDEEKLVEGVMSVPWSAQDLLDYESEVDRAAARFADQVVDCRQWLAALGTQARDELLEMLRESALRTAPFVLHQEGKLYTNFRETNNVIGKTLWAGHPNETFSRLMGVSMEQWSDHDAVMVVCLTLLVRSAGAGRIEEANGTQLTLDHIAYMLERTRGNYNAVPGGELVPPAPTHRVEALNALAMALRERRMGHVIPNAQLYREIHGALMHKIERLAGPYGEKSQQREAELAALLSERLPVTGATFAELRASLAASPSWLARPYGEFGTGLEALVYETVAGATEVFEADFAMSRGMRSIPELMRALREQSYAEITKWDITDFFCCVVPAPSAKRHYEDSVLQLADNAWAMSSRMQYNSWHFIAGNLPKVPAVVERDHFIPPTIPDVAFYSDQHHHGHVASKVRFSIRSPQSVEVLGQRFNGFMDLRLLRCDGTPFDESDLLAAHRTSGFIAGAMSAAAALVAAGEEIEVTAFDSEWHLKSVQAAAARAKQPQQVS

N[C@@H](CC(=O)O)C(=O)O [L-aspartate]
LC-MS detection of L-hydrazinosuccinate ([1]; NaNO2, sodium dithionite): indicating the formation of an N–N bond-containing product from L-Asp and NO2^–

O=NO [NO2^–]
EPR spectroscopy [2]: addition of NO2^– (a strong field ligand) was associated with the formation of a 6-coordinate rhombic | LC-MS detection of L-hydrazinosuccinate ([1]; L-aspartate, sodium dithionite, 15N-labelled nitrite also used): indicating the formation of an N–N bond-containing product from L-Asp and NO2^–

FzmP, co-expressed with KinI (enzyme)
stoichiometry N [3]: 2

B1: KinI (ferredoxin; tag placement not stated for the experiment) (protein)
chain: MPTNTSDDSLDETVEGSVSGRDKLIAERTRSETWKKPPRRIERAECITCDTCLRACPPEFNAIFDNGLDVVIIPELCSGCPKCVLECPVDCIYVDEDWTPTTDEMWKHIGLTAEGVS
binding result [4]: binds
